Consider one compound from US5565448A, “Medicament” (SmithKline Beecham Corporation, priority 1994, dated 1996).

The test system of one test is rabbit aortic strip. Description: Inhibition of PDBu-induced contraction of rabbit aortic strip. The format is cell-based. The note with it: Oryctolagus cuniculus; PDBu as agonist. The text has this:
The effect of compounds of Formula (I) in this assay is examined using the protocol in Ohlstein, et al., J. Pharm. Exp. Ther., 250:548 (1989), except PDBu and compound B are substituted in place of the agonist and antagonist, respectively, therein described.

For test [1], the system named is rat cerebellar granule cells. Description: Inhibition of glutamate-induced neurotoxicity in rat cerebellar granule cells. The test is classed as cell-based. An excerpt: The effect of compounds of Formula (I) in this assay is examined using the protocol in Lysko, et al, Brain Research, 499:258 (1989).
The test system of a further test is platelets. Description: Inhibition of PDBu-induced serotonin release from platelets. The test is classed as cell-based. The text has this:
The effect of compounds of Formula (I) in this assay is examined using the protocol in Sano, et al., J. Biol. Chem., 258:2010 (1983).

For another test, the system named is Jurkat cells. Description: Inhibition of PHA and ionophore-induced IL-2 production in Jurkat cells. The test is classed as cell-based. The settings on record: Homo sapiens, IL-2 ELISA. Here is the method:
IL-2 produced in response to PHA and ionophore in the absence or presence of compound B is assayed by an ELISA kit purchased from Advanced Magnetics, Cambridge, MA (Human 1L-2-specific ELISA). The procedure is described by Moriya, N., Journal of Immunoassay, 8:131 (1987) and Robb, R., Hunam, J., Methods in Enzymology: Immunochemical Techniques, Section H (G.Disagato, J. Langone, and H. vanVanakis, eds.: Academic Press, N.Y., vol. 116, p. 493. 1985).
(In general: ELISA stands for enzyme-linked immunosorbent assay.)

The next test relates to HIV-infected cells. Description: HIV syncytial assay. The note with it: syncytial co-cultivation assay. The test is classed as cell-based. Here is the method: Chronically infected cells are employed as cell fusion centers in a rapid syncytial co-cultivation assay with uninfected […] target cells. Syncytia develop overnight, in contrast to the 3 to 7 days required for the cytopathic effect to occur in similar cultures infected with cell-free virus preparations. Inhibition of fusion by soluble CD4 and other potential anti-HIV compounds is assessed using the assay described by Truneh, et al., Cellular Immunology, 131:98 (1990).

Test [2] has as its system angiotensin II pressor response. Description: Inhibition of pressor response to angiotensin II in conscious rats. The test is classed as in vivo. The settings on record: Rattus norvegicus, intravenous, read-out: ED50, dose producing 50% inhibition of the control response to angiotensin II. Here is the method: Rats are prepared with indwelling femoral arterial and venous catheters and a stomach tube (Gellai, et al., Kidney Int. 15:419, 1979). Two to three days following surgery the rats are placed in restrainers and blood pressure is continuously monitored from the arterial catheter with a pressure transducer and recorded on a polygraph. The change in mean arterial pressure in response to intravenous injections of […] angiotensin II is compared at various time points prior to and following the administration of the compounds intravenously at doses of 0.1 to 300 mg/kg. The dose of compound needed to produce 50% inhibition of the control response to angiotensin II (ED50) is used to estimate the potency of the compounds. The ED50 of compound B is about 30 mg/kg.

For test [3], the system named is mean arterial blood pressure. Description: Antihypertensive activity in conscious spontaneously hypertensive (SHR) rats. The format is in vivo. The settings on record: Rattus norvegicus, intravenous, read-out: ED25, dose needed to reduce mean arterial pressure by 25 mm Hg. As to the method: The antihypertensive activity of the compounds is measured by their ability to reduce mean arterial blood pressure in conscious, spontaneously hypertensive (SHR) rats. The animals are prepared with indwelling vascular catheters are described above (A) for the administration of compounds and direct recording of blood pressure. After complete recovery from surgery (4-5 days), the rats are placed into retainers to which they have become accustomed. Mean arterial pressure is recorded continuously prior to and following the intravenous administration of compounds. The dose of compound needed to reduce mean arterial pressure by 25 mm Hg (ED25) is used as an estimate of potency. The ED25 for compound B is about 15mg/kg.

The next test deals with hindpaw inflammation. The test can be described thus: Adjuvant-induced arthritis in Lewis rats. The format is in vivo. The settings on record: Rattus norvegicus, ip; AA Lewis rats, daily intraperitoneal administration; read-out: ED50, suppression of hindpaw inflammation. As to the method:
Adjuvant-induced arthritis (AA) was produced in Lewis rats by a single intradermal injection of 0.75 mg of Mycobacterium butyricum in light paraffin oil, into the base of the tail. The adjuvant arthritis occurs after a delay of approximately 10 days and is characterized by inflammation of the hindpaws. In prophylatic studies, compounds were administered daily for 5 days, beginning on the sixth day after adjuvant injection. Hindpaw volumes were measured plethysmographically on days 14, 17 and 20. [formula]
Daily intraperitoneal administration of compound B to AA rats produced a marked, dose related suppression of hindpaw inflammation with an ED50 of <10 mg/kg.

A further test deals with TNF. Description: Endotoxic shock model: TNF production and survival in endotoxin-treated rats. The test is classed as in vivo, rat. An excerpt:
6, 1991 and in Hanna, Patent Cooperation Treaty Application Number WO 90/15534, published Dec. 27, 1990.

pIC50: −log10 of the molar value.

In general, pIC50 refers to −log10 of the IC50, conventionally taken in molar units. One may read the ED50 as the midpoint of the dose-response relation.

Consider `NC1=NC(=O)/C(=C2\CCNC(=O)c3[nH]c(Br)cc32)N1` [Compound B, 4-(2-amino-4-oxo-2-imidazolin-5-ylidene)-2-bromo-4,5,6,7-tetrahydropyrrolo(2,3-c)azepine-8-one], for which the pIC50 was 6.10 to 6.30 in the test with rabbit aortic strip, ~6.22 in [1] and ~5.70 with Jurkat cells. The “Inhibition of PDBu-induced serotonin release from platelets” value in the test with platelets is on record as “showed inhibition”. Besides, the “Inhibition of fusion of HIV-infected cells to CD4-positive, uninfected cells” value in the test on HIV-infected cells is “inhibited the fusion”. The ED50 is ~30 mg/kg in test [2] and < 10 mg/kg in the test with hindpaw inflammation. Moreover, in [3], the ED (25 mm Hg) was ~15 mg/kg. For the same compound, the “Inhibition of the production of TNF” value in the test with TNF is reported as “inhibited the production of TNF”. Further, the “Survival rate of animals with endotoxic shock” value in the test on TNF was “increased the survival rate”.
